Reference: patent publication US9920088B2, “Triterpene derivative and its anti-influenza use” (Peking University, priority 2012, dated 2018)

Tests used:
[1] = tested on: influenza virus A/WSN/33(H1N1); assay: Cytopathic effect (CPE) inhibition assay, WSN virus in MDCK cells; type: cell-based; settings: for Viral Infectivity (%): lower = better inhibition; for anti-influenza virus activity: WSN, CPE; for inhibition at 50 µM: MDCK, Table 9, protective rate against cytopathy, read-out: IAV inhibition rate (%)
MDCK cells = settings: dog, 48 h, 50 μM
[2] = Table 6, 50 μM, WSN MOI=1, 48 h
[3] = Table 8, 50 μM, WSN MOI=1, 48 h

CC1(C)CC[C@]2(C(=O)O[C@H]3OC(CO)[C@H](O[C@@H]4OC(CO)[C@H](O)C(O)C4O)C(O)C3O)C(O)C[C@]3(C)C(=CC[C@@H]4[C@@]5(C)CC[C@H](O)C(C)(C)[C@@H]5CC[C@]43C)[C@@H]2C1 (stereo partly drawn) [Compound Q13, 3β,16α-dihydroxy-olean-12-en-28-oic acid-28-O-(β-D-maltoside)]
Viral Infectivity (%) [1, 2]: 115.5%
Cell viability(%) (MDCK cells): 91.7%

CC(=O)OCC1O[C@@H](O[C@H]2C(COC(C)=O)O[C@H](OC(=O)[C@]34CCC(C)(C)C[C@H]3C3=CC[C@@H]5[C@@]6(C)CC[C@H](O)C(C)(C)[C@@H]6CC[C@@]5(C)[C@]3(C)CC4O)C(OC(C)=O)C2OC(C)=O)C(OC(C)=O)C(OC(C)=O)[C@H]1OC(C)=O (stereo partly drawn) [Compound Q12, 3β,16α-dihydroxy-olean-12-en-28-oic acid-28-O-(hepta-O-acetyl-β-D-maltoside)]
Viral Infectivity (%) [1, 2]: 80.1%
anti-influenza virus activity ([1]; 50 μM): some anti-influenza virus activity
Cell viability(%) (MDCK cells): 93.3%

CC1(C)CC[C@]2(C(=O)O[C@H]3OC[C@H](O)C(O)C3O)C(O)C[C@]3(C)C(=CC[C@@H]4[C@@]5(C)CC[C@H](O)C(C)(C)[C@@H]5CC[C@]43C)[C@@H]2C1 (stereo partly drawn) [Compound Q4, 3β,16α-dihydroxy-olean-12-en-28-oic acid-28-O-(β-D-xyloside)]
Cell viability(%) (MDCK cells): 0.1%

CC(=O)OCC1O[C@H](NC(=O)[C@]23CCC(C)(C)CC2C2=CCC4[C@@]5(C)CC[C@H](O)C(C)(C)C5CC[C@@]4(C)[C@]2(C)CC3)C(OC(C)=O)C(OC(C)=O)[C@H]1OC(C)=O (stereo partly drawn) [Compound Y7, 3β-hydroxy-olean-12-en-28-oic acid-28-N-(2,3,4,6-tetra-O-acetyl-β-D-mannoside)]
Viral Infectivity (%) [1, 3]: 17.4%
anti-influenza virus activity ([1]; 50 μM): significant anti-influenza virus activity
Cell viability (%) (MDCK cells): 82.3%

echinocystic acid [EA, reference compound]
Viral Infectivity (%) ([1]; Table 6, […]): 67.9%
anti-influenza virus activity ([1]; 50 μM): some anti-influenza virus activity

CC(=O)OCC1O[C@H](OC(=O)[C@]23CCC(C)(C)C[C@H]2C2=CC[C@@H]4[C@@]5(C)CC[C@H](O)C(C)(C)[C@@H]5CC[C@@]4(C)[C@]2(C)CC3O)C(OC(C)=O)C(OC(C)=O)[C@@H]1OC(C)=O (stereo partly drawn) [Compound Q8, 3β,16α-dihydroxy-olean-12-en-28-oic acid-28-O-(2,3,4,6-tetra-O-acetyl-α-D-galactoside)]
Viral Infectivity (%) [1, 2]: 109.7%
Cell viability(%) (MDCK cells): 102.6%

CC(=O)OCC1O[C@H](NC(=O)[C@]23CCC(C)(C)CC2C2=CCC4[C@@]5(C)CCC(=O)C(C)(C)C5CC[C@@]4(C)[C@]2(C)CC3)C(OC(C)=O)C(OC(C)=O)[C@@H]1OC(C)=O (stereo partly drawn) [Compound Y9, 3-carbonyl-olean-12-en-28-oic acid-28-N-(2,3,4,6-tetra-O-acetyl-β-D-galactoside)]
inhibition at 50 µM ([1]; 50 μM): 32.2 ± 1.81%

CC1(C)CC[C@]2(C(=O)O[C@H]3OC(CO)[C@H](O[C@H]4OC(CO)[C@@H](O)C(O)C4O)C(O)C3O)C(O)C[C@]3(C)C(=CC[C@@H]4[C@@]5(C)CC[C@H](O)C(C)(C)[C@@H]5CC[C@]43C)[C@@H]2C1 (stereo partly drawn) [Compound Q11, 3β,16α-dihydroxy-olean-12-en-28-oic acid-28-O-(β-D-lactoside)]
Viral Infectivity (%) [1, 2]: 82.6%
anti-influenza virus activity ([1]; 50 μM): some anti-influenza virus activity
Cell viability(%) (MDCK cells): 92.8%

CC1(C)CC[C@]2(C(=O)O[C@H]3OC[C@@H](O)C(O)C3O)C(O)C[C@]3(C)C(=CC[C@@H]4[C@@]5(C)CC[C@H](O)C(C)(C)[C@@H]5CC[C@]43C)[C@@H]2C1 (stereo partly drawn) [Compound Q6, 3β,16α-dihydroxy-olean-12-en-28-oic acid-28-O-(β-D-arabinoside)]
Cell viability(%) (MDCK cells): 38.4%

CC1(C)CC[C@]2(C(=O)N[C@H]3OC(CO)[C@@H](O)C(O)C3O)C(=O)C[C@]3(C)C(=CCC4[C@@]5(C)CCC(=O)C(C)(C)C5CC[C@]43C)C2C1 (stereo partly drawn) [Compound Y4, 3,16-dione-olean-12-en-28-oic acid-28-N-(β-D-galactoside)]
Viral Infectivity (%) [1, 3]: 31.1%
Cell viability (%) (MDCK cells): 98.5%

CC1(C)CC[C@]2(C(=O)O[C@H]3OC(CO)[C@H](O)C(O)C3O)C(O)C[C@]3(C)C(=CC[C@@H]4[C@@]5(C)CC[C@H](O)C(C)(C)C5CC[C@]43C)[C@@H]2C1 (stereo partly drawn) [Compound Q2, 3β,16α-dihydroxy-olean-12-en-28-oic acid-28-O-(β-D-glucoside)]
Viral Infectivity (%) [1, 2]: 76.2%
anti-influenza virus activity ([1]; 50 μM): some anti-influenza virus activity
Cell viability(%) (MDCK cells): 101.1%

CC(=O)OCC1O[C@H](NC(=O)[C@]23CCC(C)(C)CC2C2=CCC4[C@@]5(C)CC[C@H](O)C(C)(C)C5CC[C@@]4(C)[C@]2(C)C[C@H]3O)C(OC(C)=O)C(OC(C)=O)[C@H]1OC(C)=O (stereo partly drawn) [Compound Y11, 3β,16α-dihydroxy-olean-12-en-28-oic acid-28-N-(2,3,4,6-tetra-O-acetyl-β-D-mannoside)]
inhibition at 50 µM ([1]; 50 μM): 26.8 ± 3.46%

CC(=O)OCC1O[C@H](NC(=O)[C@]23CC[C@@H](C)[C@H](C)C2C2=CCC4[C@@]5(C)CC[C@H](O)C(C)(C)C5CC[C@@]4(C)[C@]2(C)C[C@H]3O)C(OC(C)=O)C(OC(C)=O)[C@@H]1OC(C)=O (stereo partly drawn) [Compound Y13, 3β-hydroxy-urs-12-en-28-oic acid-28-N-(2,3,4,6-tetra-O-acetyl-β-D-galactoside)]
inhibition at 50 µM ([1]; 50 μM): 76.9 ± 5.53%
anti-influenza virus activity ([1]; 50 μM): significant anti-influenza virus activity higher than Q9

CC(=O)OC1C(OC(C)=O)[C@H](OC(C)=O)CO[C@@H]1OC(=O)[C@]12CCC(C)(C)C[C@H]1C1=CC[C@@H]3[C@@]4(C)CC[C@H](O)C(C)(C)[C@@H]4CC[C@@]3(C)[C@]1(C)CC2O (stereo partly drawn) [Compound Q5, 3β,16α-dihydroxy-olean-12-en-28-oic acid-28-O-(2,3,4-tri-O-acetyl-β-D-arabinoside)]
Viral Infectivity (%) [1, 2]: 107.5%
Cell viability(%) (MDCK cells): 100.9%

CC1(C)CC[C@]2(C(=O)N[C@H]3OC(CO)[C@H](O)C(O)C3O)CC[C@]3(C)C(=CCC4[C@@]5(C)CC[C@H](O)C(C)(C)C5CC[C@]43C)C2C1 (stereo partly drawn) [Compound Y8, 3β-hydroxy-olean-12-en-28-oic acid-28-N-(β-D-galactoside)]
Viral Infectivity (%) [1, 3]: 19.5%
anti-influenza virus activity ([1]; 50 μM): significant anti-influenza virus activity
Cell viability (%) (MDCK cells): 85.0%

CC1(C)CC[C@]2(C(=O)N[C@H]3OC(CO)[C@@H](O)C(O)C3O)CC[C@]3(C)C(=CCC4[C@@]5(C)CCC(=O)C(C)(C)C5CC[C@]43C)C2C1 (stereo partly drawn) [Compound Y10, 3-carbonyl-olean-12-en-28-oic acid-28-N-(β-D-galactoside)]
inhibition at 50 µM ([1]; 50 μM): 4.84 ± 3.08%

CC(=O)OCC1O[C@H](NC(=O)[C@]23CC[C@@H](C)[C@H](C)C2C2=CCC4[C@@]5(C)CC[C@H](O)C(C)(C)C5CC[C@@]4(C)[C@]2(C)CC3)C(OC(C)=O)C(OC(C)=O)[C@H]1OC(C)=O (stereo partly drawn) [Compound Y15, 3β-hydroxy-urs-12-en-28-oic acid-28-N-(2,3,4,6-tetra-O-acetyl-β-D-mannoside)]
inhibition at 50 µM ([1]; 50 μM): 39.8 ± 3.6%

CC(=O)OC1C(OC(C)=O)[C@@H](OC(C)=O)CO[C@@H]1OC(=O)[C@]12CCC(C)(C)C[C@H]1C1=CC[C@@H]3[C@@]4(C)CC[C@H](O)C(C)(C)[C@@H]4CC[C@@]3(C)[C@]1(C)CC2O (stereo partly drawn) [Compound Q3, 3β,16α-dihydroxy-olean-12-en-28-oic acid-28-O-(2,3,4-tri-O-acetyl-β-D-xyloside)]
Viral Infectivity (%) [1, 2]: 71.1%
anti-influenza virus activity ([1]; 50 μM): some anti-influenza virus activity
Cell viability(%) (MDCK cells): 100.4%

CC(=O)OCC1O[C@H](OC(=O)[C@]23CCC(C)(C)C[C@H]2C2=CC[C@@H]4[C@@]5(C)CC[C@H](O)C(C)(C)C5CC[C@@]4(C)[C@]2(C)CC3O)C(OC(C)=O)C(OC(C)=O)[C@H]1OC(C)=O (stereo partly drawn) [Compound Q1, 3β,16α-dihydroxy-olean-12-en-28-oic acid-28-O-(2,3,4,6-tetra-O-acetyl-β-D-glucoside)]
Viral Infectivity (%) [1, 2]: 78.7%
anti-influenza virus activity ([1]; 50 μM): some anti-influenza virus activity
Cell viability(%) (MDCK cells): 110.2%

CC(=O)OCC1O[C@H](NC(=O)[C@]23CCC(C)(C)CC2C2=CCC4[C@@]5(C)CCC(=O)C(C)(C)C5CC[C@@]4(C)[C@]2(C)CC3=O)C(OC(C)=O)C(OC(C)=O)[C@@H]1OC(C)=O (some centres unmarked) [Compound Y3]
Viral Infectivity (%) [1, 3]: 16.3%
anti-influenza virus activity ([1]; 50 μM): significant anti-influenza virus activity
Cell viability (%) (MDCK cells): 80.8%

C[C@@H]1CC[C@]2(C(=O)N[C@H]3OC(CO)[C@@H](O)C(O)C3O)CC[C@]3(C)C(=CCC4[C@@]5(C)CC[C@H](O)C(C)(C)C5CC[C@]43C)C2[C@H]1C (stereo partly drawn) [Compound Y14, 3β-hydroxy-urs-12-en-28-oic acid-28-N-(β-D-galactoside)]
inhibition at 50 µM ([1]; 50 μM): 62.2 ± 2.96%
anti-influenza virus activity ([1]; 50 μM): significant anti-influenza virus activity higher than Q9

CC1(C)CC[C@]2(C(=O)O[C@H]3OC(CO)[C@H](O[C@H]4OC(CO)[C@H](O)C(O)C4O)C(O)C3O)C(O)C[C@]3(C)C(=CC[C@@H]4[C@@]5(C)CC[C@H](O)C(C)(C)[C@@H]5CC[C@]43C)[C@@H]2C1 (stereo partly drawn) [Compound Q14, 3β,16α-dihydroxy-olean-12-en-28-oic acid-28-O-(β-D-cellobioside)]
Viral Infectivity (%) [1, 2]: 154.4%
Cell viability(%) (MDCK cells): 98.3%

CC(=O)OCC1O[C@H](NC(=O)[C@]23CCC(C)(C)CC2C2=CCC4[C@@]5(C)CC[C@H](O)C(C)(C)C5CC[C@@]4(C)[C@]2(C)C[C@H]3O)C(OC(C)=O)C(OC(C)=O)[C@@H]1OC(C)=O (stereo partly drawn) [Compound Y1, 3β,16α-dihydroxy-olean-12-en-28-oic acid-28-N-(2,3,4,6-tetra-O-acetyl-β-D-galactoside)]
Viral Infectivity (%) [1, 3]: 16.4%
anti-influenza virus activity ([1]; 50 μM): significant anti-influenza virus activity
Cell viability (%) (MDCK cells): 84.8%

C[C@@H]1CC[C@]2(C(=O)N[C@H]3OC(CO)[C@H](O)C(O)C3O)CC[C@]3(C)C(=CCC4[C@@]5(C)CC[C@H](O)C(C)(C)C5CC[C@]43C)C2[C@H]1C (stereo partly drawn) [Compound Y16, 3β-hydroxy-urs-12-en-28-oic acid-28-N-(β-D-mannoside)]
inhibition at 50 µM ([1]; 50 μM): 48.2 ± 4.22%
